Data reported in patent US20040209959A1, “Congeners of acetaminophen and related compounds as substrates for fatty acid conjugation and their use in treatment of pain, fever and inflammation” (priority 2001, published 2004).

Legend:
[1] = biological target: T1, vanilloid receptors on vasodilator sensory nerves (Rattus norvegicus, UniProt O35433); assay: Vasodilator effect in isolated rat mesenteric artery segments contracted with phenylephrine; settings: for activation of vanilloid receptors on perivascular sensory nerves: FIG. 7; for relaxation of arterial segments contracted with phenylephrine: FIG. 7c; for effect on the vasodilator action of AM404: capsazepine 3 μM, ruthenium red 1 μM; for inhibition of the effect of capsaicin (antagonist action on vanilloid receptors): 1 mM acetaminophen or 100 μM p-aminophenol for 30 min; for vasorelaxation per se (agonist action on vanilloid receptors): p-aminophenol in the presence of ascorbic acid
T1 construct: from tissue; host or cells: mesenteric arteries from female Wistar-Hannover rats
T1 sequence (O35433 whole entry): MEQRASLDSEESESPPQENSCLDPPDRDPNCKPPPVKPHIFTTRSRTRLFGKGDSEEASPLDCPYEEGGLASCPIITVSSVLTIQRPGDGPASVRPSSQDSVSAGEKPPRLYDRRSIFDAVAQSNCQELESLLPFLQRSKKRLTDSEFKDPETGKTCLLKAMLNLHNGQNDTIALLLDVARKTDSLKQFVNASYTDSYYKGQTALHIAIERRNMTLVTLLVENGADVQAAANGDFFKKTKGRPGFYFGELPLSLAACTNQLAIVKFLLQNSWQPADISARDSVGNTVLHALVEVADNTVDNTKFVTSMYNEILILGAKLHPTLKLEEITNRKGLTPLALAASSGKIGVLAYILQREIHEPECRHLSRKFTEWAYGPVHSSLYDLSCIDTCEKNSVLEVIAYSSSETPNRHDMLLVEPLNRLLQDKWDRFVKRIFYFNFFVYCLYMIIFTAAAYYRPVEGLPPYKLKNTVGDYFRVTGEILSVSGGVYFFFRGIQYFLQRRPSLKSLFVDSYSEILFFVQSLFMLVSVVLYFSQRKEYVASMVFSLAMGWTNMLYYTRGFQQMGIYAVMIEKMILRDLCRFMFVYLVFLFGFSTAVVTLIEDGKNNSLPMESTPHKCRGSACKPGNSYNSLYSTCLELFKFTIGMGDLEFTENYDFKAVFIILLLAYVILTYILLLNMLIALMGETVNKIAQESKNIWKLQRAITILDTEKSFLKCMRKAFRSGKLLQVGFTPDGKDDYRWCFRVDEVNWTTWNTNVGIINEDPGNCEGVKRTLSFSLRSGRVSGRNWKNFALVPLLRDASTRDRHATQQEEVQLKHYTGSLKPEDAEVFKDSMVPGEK
Procedure: Recording of tension. Experiments were performed on mesenteric arteries from female Wistar-Hannover rats (250 g) as described (48). Briefly, the arteries were cut into ring segments and mounted in tissue baths, containing aerated physiological salt solution (5% CO2 and 95% O2; 37° C.; pH 7.4). […] We studied relaxant responses in preparations contracted with phenylephrine. When stable contractions were obtained, substances were added cumulatively to determine concentration-response relationships.
Calculations and statistics. Data are presented as means ±S.E.M. (vertical lines in figures), and n indicates the number of animals unless otherwise stated. GraphPad Prism 3.0 software was used for curve fitting (non-linear regressions) and calculations of pEC50 values. Mann-Whitney U-test or Student's t-test on log transformed values was used for statistical analysis. Statistical significance was accepted when P<0.05.

COX-2 = biological target: T2, COX-2 (Ovis aries, UniProt P79208); settings: isolated enzyme preparation; 10 μM arachidonic acid
T2 sequence (P79208 17-603): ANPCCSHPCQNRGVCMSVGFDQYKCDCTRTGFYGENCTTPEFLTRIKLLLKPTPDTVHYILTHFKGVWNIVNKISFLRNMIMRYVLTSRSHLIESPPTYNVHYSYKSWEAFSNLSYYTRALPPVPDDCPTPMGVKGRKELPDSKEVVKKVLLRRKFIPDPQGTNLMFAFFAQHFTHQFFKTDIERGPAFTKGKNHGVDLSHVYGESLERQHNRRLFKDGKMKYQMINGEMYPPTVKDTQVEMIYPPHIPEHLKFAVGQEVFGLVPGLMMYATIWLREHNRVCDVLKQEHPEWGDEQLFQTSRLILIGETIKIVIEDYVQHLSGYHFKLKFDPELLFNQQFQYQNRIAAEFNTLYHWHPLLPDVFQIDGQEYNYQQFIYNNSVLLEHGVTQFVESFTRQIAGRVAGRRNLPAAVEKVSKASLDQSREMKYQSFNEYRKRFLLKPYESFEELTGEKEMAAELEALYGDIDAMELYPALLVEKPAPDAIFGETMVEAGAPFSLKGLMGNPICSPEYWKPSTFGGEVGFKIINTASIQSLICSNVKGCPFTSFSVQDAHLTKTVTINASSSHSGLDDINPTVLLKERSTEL
Procedure: (§1) COX activity was measured as prostaglandin formation in the presence of 10 μM arachidonic acid.
(§2) COX-1 and COX-2 assays. COX-1 and COX-2 activity was determined in the presence of 10 μM arachidonic acid using a COX (ovine) inhibitor screening assay (Cayman). Drugs were incubated with the enzyme preparation 8 min before application of arachidonic acid. Prostaglandin formation was used as a measure of COX activity and quantified via enzyme immunoassay (EIA).

COX-1 = biological target: T3, COX-1 (Ovis aries, UniProt P05979); settings: isolated enzyme preparation; 10 μM arachidonic acid
T3 sequence (P05979 25-600): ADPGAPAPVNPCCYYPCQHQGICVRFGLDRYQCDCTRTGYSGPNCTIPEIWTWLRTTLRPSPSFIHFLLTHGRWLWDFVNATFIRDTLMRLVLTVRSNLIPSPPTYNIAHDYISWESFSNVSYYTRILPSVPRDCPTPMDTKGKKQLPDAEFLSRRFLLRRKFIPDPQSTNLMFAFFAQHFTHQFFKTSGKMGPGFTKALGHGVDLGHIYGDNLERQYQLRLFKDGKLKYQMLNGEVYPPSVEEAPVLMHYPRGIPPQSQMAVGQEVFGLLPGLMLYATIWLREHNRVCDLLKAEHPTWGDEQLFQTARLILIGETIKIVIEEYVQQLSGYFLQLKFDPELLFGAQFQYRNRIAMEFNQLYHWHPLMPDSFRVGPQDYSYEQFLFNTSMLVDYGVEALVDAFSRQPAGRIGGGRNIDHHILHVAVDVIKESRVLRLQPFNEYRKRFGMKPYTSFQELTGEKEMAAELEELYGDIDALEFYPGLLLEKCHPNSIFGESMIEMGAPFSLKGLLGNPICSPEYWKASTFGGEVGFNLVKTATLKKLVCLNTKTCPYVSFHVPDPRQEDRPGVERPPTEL
Procedure: as §1, §2

[2] = remark: listed apart in the source
Procedure: In vivo experiments. Acetaminophen ([…]) or vehicle (saline) at a volume of 2-3 ml was given to female Wistar-Hannover rats (200-300 g) by an intraperitoneal injection. Some rats were pretreated with PMSF (10 mg kg^−1) or vehicle (saline:PEG 6000; 1:10 w/w) given subcutaneously (2-3 ml) 20 min before administration of acetaminophen. Approximately 20 min after injection of acetaminophen, the animals were killed to collect brain, liver, spinal cord and arterial blood. […] PMSF (0.1 mM) and ascorbic acid (0.3 mM) were also present in the Tris buffer and added to the blood samples to prevent degradation of fatty acid amides and p-aminophenol, respectively.
Quantitative analyses. The extraction residues were reconstituted in 100 μl methanol except for p-aminophenol, for which 100 μl 0.5% acetic acid was used. The quantitative analyses were performed using a Perkin Elmer 200 liquid chromatography system with autosampler (Applied Biosystems), coupled to an API 3000 tandem mass spectrometer (Applied Biosystems/MDS-SCIEX). All mobile phases were water-methanol gradients, containing 0.5% acetic acid, and the flow rate was 200 μl min^−1 except for arachidonic acid where it was 400 μl min^−1.
AM404, arachidonoyldopamine, arachidonoylserotonin and anandamide.
p-Aminophenol. Sample aliquots of 2 μl were injected on a Genesis phenyl column (150×2.1 mm; Jones). The mobile flow was initially 97% water for 2 min. […] The electrospray ion source was set at 450° C. and used in the positive ion mode. The ion spray voltage and declustering potential were set to 4500 volts and 55 volts, respectively. M/z 109.9/64.6 with a collision energy of 31 volts was used for the quantitative determinations.

[3] = tested on: AM404 production in brain homogenates; assay: Inhibition of AM404 formation in rat brain homogenates; format: biochemical; settings: 1 hour pre-incubation, p-aminophenol plus arachidonic acid each 100 μM
Procedure: (§3) Tissue homogenate experiments. The brain, liver, spinal cord and dorsal root ganglia from female Wistar-Hannover rats (250 g) were homogenised in a Tris buffer (10 mM, pH 7.6), containing EDTA (1 mM), to give 90-330 mg tissue ml^−1. We carried out experiments in aliquots of 200 μl homogenate at 37° C. as further explained in the text. The reactions were stopped by adding 1 ml ice-cold acetone containing 1 μM [^2H8]-anandamide. The samples were kept on ice until the acetone phase was evaporated in vacuo.

anandamide hydrolysis = assay: Inhibition of [2H8]-anandamide hydrolysis in rat brain homogenates; format: biochemical; settings: 1 hour pre-incubation, [2H8]-anandamide 10 μM
Procedure: as §3
Sample aliquots of 5 μl were injected on a Genesis C18 column (50×2.1 mm; Jones). The HPLC was operated isocratically at 20% water and 80% methanol. The electrospray ion source was operating in the negative ion mode at 370° C., the ion spray voltage was −3000 volts and the declustering potential was −120 volts. M/z 310.8/267.0 with a collision energy of −22 volts was used for the quantitative determinations.

[4] = female, Wistar-Hannover, rat, pH 7.6
Procedure: as §3
Sample aliquots of 5 μl were injected on a Genesis C8 column (20×2.1 mm; Jones). Initially, the mobile flow was 25% water for 5.5 min. […]
p-Aminophenol. […] M/z 109.9/64.6 with a collision energy of 31 volts was used for the quantitative determinations. […]

[5] = PMSF 10 mg kg^−1 s.c. 20 min before acetaminophen

NCCc1ccc(O)c(O)c1 [dopamine]
production of arachidonoyldopamine (brain homogenates, dopamine 100 μM plus arachidonic acid 100 μM, 1 hour): substantial amounts

CCCCC/C=C\C/C=C\C/C=C\C/C=C\CCCC(=O)NCCc1ccc(O)c(OC)c1 [arachidonoyl-3-methoxytyramine]
activation of vanilloid receptors on perivascular sensory nerves [1]: activators | relaxation of arterial segments contracted with phenylephrine [1]: concentration-dependent relaxation

Oc1cc2c(cc1O)CN(C(=S)NCCc1ccc(Cl)cc1)CCC2 [capsazepine]
effect on the vasodilator action of AM404 [1]: inhibited

CCCCC/C=C\C/C=C\C/C=C\C/C=C\CCCC(=O)OC(CO)CO [2-arachidonoylglycerol]
activation of vanilloid receptors on perivascular sensory nerves [1]: activators

CCCCC/C=C\C/C=C\C/C=C\C/C=C\CCCC(=O)NCCc1ccc(O)cc1 [arachidonoyltyramine]
activation of vanilloid receptors on perivascular sensory nerves [1]: activators | relaxation of arterial segments contracted with phenylephrine [1]: concentration-dependent relaxation

CCCCCC=CCC=CCC=CCC=CCCCC(=O)Nc1ccc(O)cc1 [AM404, N-(4-hydroxyphenyl)-5,8,11,14-eicosatetraenamide]
EC50 [1]: 0.0158 µM | relaxation of arteries pre-treated with capsaicin ([1]; capsaicin 1 μM for 30 min): unable to relax | effect on COX-2 activity (COX-2): concentration-dependently inhibited | effect on COX-1 activity (COX-1): concentration-dependently inhibited

O=S(=O)(F)Cc1ccccc1 [PMSF, phenyl-methyl-sulphonylfluoride]
effect on formation of arachidonoyldopamine and arachidonoylserotonin (PMSF 100 μM added 1 hour before): almost abolished | effect on formation of AM404 in brain after acetaminophen [2, 5]: abolished | reduction of p-aminophenol content in brain after acetaminophen [2, 5]: 48% | pEC50 for inhibition of the formation of AM404 [3]: 5.41±0.03 | pEC50 for inhibition of the hydrolysis of anandamide (anandamide hydrolysis): 5.28±0.07

Nc1ccc(O)cc1 [p-aminophenol]
inhibition of the effect of capsaicin (antagonist action on vanilloid receptors) [1]: nor inhibited the effect of capsaicin | vasorelaxation per se (agonist action on vanilloid receptors) [1]: neither induced vasorelaxation per se | effect on COX-2 activity (COX-2): No effect | effect on COX-1 activity (COX-1): No effect

NCCc1c[nH]c2ccc(O)cc12 [serotonin]
production of arachidonoylserotonin (brain homogenates, serotonin 100 μM plus arachidonic acid 100 μM, 1 hour): substantial amounts

CC(=O)Nc1ccc(O)cc1 [acetaminophen]
AM404 in brain, representative chromatogram of one animal ([2]; female, Wistar-Hannover, rat, in vivo, 20 min): 23.4 pmol/g | inhibition of the effect of capsaicin (antagonist action on vanilloid receptors) [1]: nor inhibited the effect of capsaicin | vasorelaxation per se (agonist action on vanilloid receptors) [1]: neither induced vasorelaxation per se | effect on COX-2 activity (COX-2): No effect | effect on COX-1 activity (COX-1): No effect | AM404 formation in brain homogenates ([4]; 100 μM): did not result in any detectable levels of AM404 | AM404 in brain homogenates ([4]; 1 mM): 14 ± 2.6 pmol/g

N.N.N.N.N.N.N.N.N.N.N.N.N.N.[Cl-].[Cl-].[Cl-].[Cl-].[Cl-].[Cl-].[O-2].[O-2].[Ru+3].[Ru+3].[Ru+4] [ruthenium red]
effect on the vasodilator action of AM404 [1]: inhibited

CCCCC/C=C\C/C=C\C/C=C\C/C=C\CCCC(=O)OCC(O)CO (stereo not drawn) [1-arachidonoylglycerol]
activation of vanilloid receptors on perivascular sensory nerves [1]: activators
